Legend:
LF = LF (Bacillus anthracis, UniProt P15917); assay type: biochemical
Cdc25B [1] = biological target: T1, Cdc25B (Homo sapiens, UniProt P30305); assay: biochemical; conditions: read-out: % Inhibition (cdc25B)
T1 sequence (P30305 1-580): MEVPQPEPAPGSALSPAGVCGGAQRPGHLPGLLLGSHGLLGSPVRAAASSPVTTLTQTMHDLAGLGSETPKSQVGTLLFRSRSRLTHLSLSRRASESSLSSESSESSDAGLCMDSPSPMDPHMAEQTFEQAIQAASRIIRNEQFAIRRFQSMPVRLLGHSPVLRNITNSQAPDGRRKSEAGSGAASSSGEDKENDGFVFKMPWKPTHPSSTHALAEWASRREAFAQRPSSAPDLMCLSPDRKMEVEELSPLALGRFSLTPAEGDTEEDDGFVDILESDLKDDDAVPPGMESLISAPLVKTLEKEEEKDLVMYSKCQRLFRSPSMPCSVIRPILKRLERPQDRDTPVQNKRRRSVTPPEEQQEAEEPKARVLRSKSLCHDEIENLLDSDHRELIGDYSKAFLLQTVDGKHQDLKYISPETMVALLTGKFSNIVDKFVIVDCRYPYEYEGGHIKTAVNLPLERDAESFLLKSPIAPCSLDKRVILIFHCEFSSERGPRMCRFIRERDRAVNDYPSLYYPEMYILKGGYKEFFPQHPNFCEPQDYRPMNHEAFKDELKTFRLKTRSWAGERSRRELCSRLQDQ

[2] = test system: Sterne B. anthracis spores; assay type: cell-based; conditions: 10 μM
CD45 [3] = biological target: T2, CD45 (Homo sapiens, UniProt P08575); assay: biochemical; conditions: read-out: inhibition of the phosphatase activity of CD45
T2 construct: purchased Upstate (Lake Placid, N.Y.)
T2 sequence (P08575 26-1306): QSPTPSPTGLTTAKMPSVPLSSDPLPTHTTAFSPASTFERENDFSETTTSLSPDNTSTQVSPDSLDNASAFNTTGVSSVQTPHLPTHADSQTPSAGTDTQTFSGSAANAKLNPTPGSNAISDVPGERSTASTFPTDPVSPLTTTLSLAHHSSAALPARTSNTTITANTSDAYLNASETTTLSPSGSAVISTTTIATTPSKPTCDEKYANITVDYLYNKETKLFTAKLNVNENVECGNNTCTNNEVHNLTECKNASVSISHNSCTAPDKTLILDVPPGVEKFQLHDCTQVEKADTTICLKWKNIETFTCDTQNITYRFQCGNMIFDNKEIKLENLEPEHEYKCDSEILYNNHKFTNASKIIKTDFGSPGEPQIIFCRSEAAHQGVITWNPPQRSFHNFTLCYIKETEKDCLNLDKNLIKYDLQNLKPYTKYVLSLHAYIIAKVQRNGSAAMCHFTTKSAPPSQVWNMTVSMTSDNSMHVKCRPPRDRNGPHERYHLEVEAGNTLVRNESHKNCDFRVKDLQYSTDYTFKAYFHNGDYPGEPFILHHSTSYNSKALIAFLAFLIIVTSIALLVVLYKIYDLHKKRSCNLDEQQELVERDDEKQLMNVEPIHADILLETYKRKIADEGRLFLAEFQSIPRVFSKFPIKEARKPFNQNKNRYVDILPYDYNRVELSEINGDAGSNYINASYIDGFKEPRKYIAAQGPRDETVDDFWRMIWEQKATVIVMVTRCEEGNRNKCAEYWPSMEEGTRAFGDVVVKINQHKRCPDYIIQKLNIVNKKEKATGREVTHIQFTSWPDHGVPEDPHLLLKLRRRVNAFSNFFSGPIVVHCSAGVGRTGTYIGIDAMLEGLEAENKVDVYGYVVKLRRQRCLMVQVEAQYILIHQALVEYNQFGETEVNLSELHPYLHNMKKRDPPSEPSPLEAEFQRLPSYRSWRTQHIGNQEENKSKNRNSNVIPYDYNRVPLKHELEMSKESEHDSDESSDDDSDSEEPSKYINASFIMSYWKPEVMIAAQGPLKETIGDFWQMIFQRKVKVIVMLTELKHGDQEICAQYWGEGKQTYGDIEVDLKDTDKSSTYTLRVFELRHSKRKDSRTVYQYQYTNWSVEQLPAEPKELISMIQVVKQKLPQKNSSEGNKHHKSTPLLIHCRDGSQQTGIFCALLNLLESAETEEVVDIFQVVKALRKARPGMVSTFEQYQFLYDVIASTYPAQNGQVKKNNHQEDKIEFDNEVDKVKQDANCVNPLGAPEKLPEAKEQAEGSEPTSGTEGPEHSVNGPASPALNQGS

proteasome = assay type: biochemical, mouse
Cdc25B [4] = biological target: T1, Cdc25B; conditions: Lazo et al. (2002); cited from earlier work
Ames B. anthracis spores = conditions: in vivo
CD45 [5] = assay: CD45 phosphatase activity after immunoprecipitation from cell lysates; assay type: cell-based, mouse; conditions: 8 μM, 72 hours
MEK = assay type: cell-based, mouse
CD45 [6] = assay: immunoblot of CD45 protein levels; assay type: cell-based, mouse; conditions: 72 hours, vs untreated or scrambled PMO

Chain of LF (P15917 34-809 limits assumed): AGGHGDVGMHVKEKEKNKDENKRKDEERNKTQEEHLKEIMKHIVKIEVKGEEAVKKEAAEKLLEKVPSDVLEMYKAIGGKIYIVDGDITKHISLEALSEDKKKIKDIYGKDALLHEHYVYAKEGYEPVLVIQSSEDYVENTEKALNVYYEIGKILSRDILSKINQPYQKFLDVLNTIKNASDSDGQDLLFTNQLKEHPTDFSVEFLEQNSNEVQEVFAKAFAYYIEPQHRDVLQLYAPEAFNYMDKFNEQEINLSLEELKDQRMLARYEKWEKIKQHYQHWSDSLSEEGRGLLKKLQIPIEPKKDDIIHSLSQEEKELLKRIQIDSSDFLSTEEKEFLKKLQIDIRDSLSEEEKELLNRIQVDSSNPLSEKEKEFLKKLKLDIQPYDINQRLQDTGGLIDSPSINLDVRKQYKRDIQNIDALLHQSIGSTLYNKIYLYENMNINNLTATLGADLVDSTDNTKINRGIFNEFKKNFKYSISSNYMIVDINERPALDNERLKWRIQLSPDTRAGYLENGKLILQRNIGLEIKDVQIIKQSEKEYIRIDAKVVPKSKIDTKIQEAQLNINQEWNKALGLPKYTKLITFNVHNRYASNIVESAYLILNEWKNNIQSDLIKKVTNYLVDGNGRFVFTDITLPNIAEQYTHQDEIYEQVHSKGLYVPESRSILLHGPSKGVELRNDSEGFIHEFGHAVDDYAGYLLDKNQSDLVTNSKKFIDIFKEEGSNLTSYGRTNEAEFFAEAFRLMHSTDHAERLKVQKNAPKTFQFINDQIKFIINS

Row | Compound | inhibition of LF enzymatic activity (cleavage of peptide substrate) (LF) | inhibition at 10 µM (Cdc25B [1]) | anti-microbial activity (growth of the bacteria) [2] | inhibition of proteasome activity (proteasome) | inhibition of Cdc25, previously reported (Cdc25B [4]) | further results
1 | O=C1C(SCCO)=C(SCCO)C(=O)c2ccccc21 [NSC 95397] | None of the compounds were observed to inhibit | 83% | do not inhibit the growth of the bacteria | neither NSC 95397 nor NSC 270012 inhibited proteasome activity | previously reported to inhibit Cdc25 | inhibition at 10 µM (CD45 [3]): ~94%
2 | NC(=O)CCCSC1=CC(=O)c2ccccc2C1=O [NSC 270012] | None of the compounds were observed to inhibit | 72% | do not inhibit the growth of the bacteria | neither NSC 95397 nor NSC 270012 inhibited proteasome activity | – | –
3 | Cc1ccc2c(c1C)-c1c(ccc(C)c1C)C(=O)C2=O [NSC 135880] | None of the compounds were observed to inhibit | 99% | – | – | previously reported to inhibit Cdc25 | –
4 | NC(=O)CCSC1=CC(=O)c2ccccc2C1=O [NSC 270011] | None of the compounds were observed to inhibit | 25% | – | – | – | –
5 | CD45 PMO (CCACAAACCCATGGTCATATC; all phosphorodiamidate morpholino (PMO)) | – | – | – | – | – | antibody titers in surviving mice (Ames B. anthracis spores): developed protective antigen specific and lethal toxin neutralizing antibody titers; protection on re-challenge with Ames B. anthracis spores (Ames B. anthracis spores): completely protected; survival (Ames B. anthracis spores; 100 mg/kg/day): greatly increased; CD45 phosphatase activity following immunoprecipitation (CD45 [5]): concomitant reduction in CD45 phosphatase activity; MEK cleavage (MEK): MEK cleavage was not prevented; CD45 protein levels by immunoblot (CD45 [6]): dose dependent reduction
6 | O=C1C=C(SCCO)C(=O)c2ccccc21 [NSC 148596] | None of the compounds were observed to inhibit | 67% | – | – | – | –

From patent US20120135013A1, “CD45 and Methods and Compounds Related Thereto” (priority 2007, published 2012)
